According to US4304778A, “4-Aminoquinazoline derivatives having fungicidal, anti-insect and acaricidal properties” (Sankyo Company Limited, priority 1978, dated 1981):

Key:
guppies = test: Toxicity to guppies; format: in vivo; settings: LC50 after 48 hours classified
Protocol: In this example the toxicity of the compounds of the invention towards guppies was estimated and is compared with that of corresponding compounds as disclosed and claimed in our co-pending U.S. Application No. 910,117 filed May 30, 1978. The LC50 was determined after 48 hours and the toxicity to guppies was classified into the rankings (i), (ii) and (iii) according to the following classification scheme: […]

cockroach larvae = settings: 24 hours; 25° C.
Sphaerotheca fuliginea = test: Effect on powdery mildew in cucumbers; format: in vivo; settings: cucumber powdery mildew; 500 ppm; 10 days
Protocol: (§1) In the following Examples, wettable powders prepared according to the procedures of Example 4 were used, each powder containing 50% by weight of the active compound of this invention.
Cucumber seedlings (variety Sagamihanshiro), planted two per 12 cm diameter pot, were used as host plants at the stage when the first leaf was fully grown and open. Each test group of three pots was treated with one of the active compounds shown in Table 5 by spraying an aqueous suspension containing 500 ppm of the active compound onto the plants at the rate of 20 ml per 3 pots. After air-drying the plants, the host plants were inoculated with the microorganism Sphaerotheca fuliginea by brushing already infected cucumber leaves with a small brush and letting the microorganism fall onto the host plants. The inoculated plants were kept in a greenhouse at 24°-26° C. for 10 days. At the end of this time, the percentage diseased area was measured.

Phytophthora infestans = format: in vivo; settings: tomato late blight; 500 ppm; after 5 days; average per leaf
[1] = system: final instar larvae of the diamondback moth (Plutella xylostella); test: Repellent and emergence-inhibition effect on the final instar larvae of diamondback moths; format: in vivo; settings: 72 hours; for pest or weed control at 500 ppm: Plutella xylostella, read-out: Emergence-inhibition rate (%); for Extent of ingestion: radish leaves dipped in 500 ppm
Text: as §1
Leaves of the Japanese radish (Raphanus sativus) were dipped for 30 seconds into a liquid containing 500 ppm of one of the compounds shown in Table 9. After air-drying the leaves, each leaf was placed into a plastic icecream cup (diameter 8 cm) and 15 final instar larvae of the diamondback moth (Plutella xylostella) were placed into each cup. Each test was conducted in duplicate and the results were averaged.

Structure (SMILES) | Toxicity ranking (guppies) | Diseased area (%) (Sphaerotheca fuliginea) | Diseased area (%) (Phytophthora infestans) | further results
Cc1ccccc1OCCNc1ncnc2ccccc12 [Compound A, 4-{N-[2-(2-methylphenoxy)ethyl]amino}quinazoline, reference compound] | iii (all fish dead at 0.5 ppm) | – | – | –
CC(C)c1ccccc1OCCNc1ncnc2ccccc12 [Compound B, 4-{N-[2-(2-isopropylphenoxy)ethyl]amino}quinazoline, reference compound] | iii (all fish dead at 0.5 ppm) | – | – | –
Cc1ccc(OCCNc2ncnc3ccccc23)c(C)c1 [Compound C, 4-{N-[2-(2,4-dimethylphenoxy)ethyl]amino}quinazoline, reference compound] | iii (all fish dead at 0.5 ppm) | – | – | –
Cc1cc(Cl)ccc1OCCNc1ncnc2ccccc12 [Compound D, 4-{N-[2-(4-chloro-2-methylphenoxy)ethyl]amino}quinazoline, reference compound] | iii (all fish dead at 0.5 ppm) | – | – | –
CN(CCOc1ccccc1)c1ncnc2ccccc12 [Compound No. 4, 4-[N-methyl-N-(2-phenoxyethyl)amino]quinazoline] | – | – | – | Mortality rate (%), 0.5mg test cpd/10 cockroaches/bottle (cockroach larvae): 85%; Mortality rate (%), 1mg test cpd/10 cockroaches/bottle (cockroach larvae): 100%
C=CCN(CCOc1ccccc1C)c1ncnc2ccccc12 [Compound No. 8, 4-{N-allyl-N-[2-(2-methylphenoxy)ethyl]amino}quinazoline] | ii (all fish dead at 10 ppm but alive at 0.5 ppm) | 0 | 5 | –
Cc1ccccc1OCCN(Cc1ccccc1)c1ncnc2ccccc12 [compound 3, 4-{N-benzyl-N-[2-(2-methylphenoxy)ethyl]amino}quinazoline] | i (all fish alive at 10 ppm) | 0 | 11 | –
CCN(CCOc1ccccc1)c1ncnc2ccccc12 [compound 5, 4-[N-ethyl-N-(2-phenoxyethyl)amino]quinazoline] | – | 6 | – | –
CCCN(CCOc1ccccc1C)c1ncnc2ccccc12 [compound 6, 4-{N-[2-(2-methylphenoxy)ethyl]-N-propylamino}quinazoline] | – | 0 | 0 | –
Cc1ccccc1OCCN(c1ncnc2ccccc12)C(C)C [compound 7, 4-{N-isopropyl-N-[2-(2-methylphenoxy)ethyl]amino}quinazoline] | ii (all fish dead at 10 ppm but alive at 0.5 ppm) | 0 | – | –
CN(CCOc1ccccc1Cl)c1ncnc2ccccc12 [compound 11, 4-{N-[2-(2-chlorophenoxy)ethyl]-N-methylamino}quinazolone] | – | – | 3 | –
CCC(C)c1ccccc1OCCN(C)c1ncnc2ccccc12 (stereo not shown) [compound 12, 4-{N-methyl-N-[2-(2-sec-butylphenoxy)ethyl]amino}quinazoline] | – | – | 15 | Mortality rate (%), 0.5mg test cpd/10 cockroaches/bottle (cockroach larvae): 90%; Mortality rate (%), 1mg test cpd/10 cockroaches/bottle (cockroach larvae): 100%
COc1ccccc1OCCN(C)c1ncnc2ccccc12 [compound 16, 4-{N-[2-(2-methoxyphenoxy)ethyl]-N-methylamino}quinazoline] | – | – | 13 | –
Cc1cccc(OCCN(C)c2ncnc3ccccc23)c1 [compound 20, 4-{N-methyl-N-[2-(3-methylphenoxy)ethyl]amino}quinazoline] | – | – | – | Mortality rate (%), 0.5mg test cpd/10 cockroaches/bottle (cockroach larvae): 90%; Mortality rate (%), 1mg test cpd/10 cockroaches/bottle (cockroach larvae): 100%
CN(CCOc1cccc(Cl)c1)c1ncnc2ccccc12 [compound 23, 4-{N-[2-(3-chlorophenoxy)ethyl]-N-methylamino}quinazoline] | – | – | – | Mortality rate (%), 0.5mg test cpd/10 cockroaches/bottle (cockroach larvae): 85%; Mortality rate (%), 1mg test cpd/10 cockroaches/bottle (cockroach larvae): 100%
CCCN(CCOc1ccccc1C(C)C)c1ncnc2ccccc12 [compound 24, 4-{N-[2-(2-isopropylphenoxy)ethyl]-N-propylamino}quinazoline] | – | 0 | – | –

Structure (SMILES) | Toxicity ranking (guppies) | Diseased area (%) (Sphaerotheca fuliginea) | Diseased area (%) (Phytophthora infestans) | further results
CCN(CCOc1ccccc1C(C)C)c1ncnc2ccccc12 [compound 27, 4-{N-ethyl-N-[2-(2-isopropylphenoxy)ethyl]amino}quinazoline] | – | 0 | – | –
CCCCN(CCOc1ccccc1C(C)C)c1ncnc2ccccc12 [compound 28, 4{N-butyl-N-[2-(2-isopropylphenoxy)ethyl]amino}quinazoline] | – | 0 | – | –
CC(C)c1ccccc1OCCN(c1ncnc2ccccc12)C(C)C [compound 29, 4-{N-isopropyl-N-[2-(2-isopropylphenoxy)ethyl]amino}quinazoline] | – | – | – | pest or weed control at 500 ppm [1]: 60%; Extent of ingestion [1]: ± to +
CCCN(CCOc1ccc(C)cc1C)c1ncnc2ccccc12 [compound 33, 4-{N-[2-(2,4-dimethylphenoxy)ethyl]-N-propylamino}quinazoline] | – | 0 | – | Mortality rate (%), 0.5mg test cpd/10 cockroaches/bottle (cockroach larvae): 90%; Mortality rate (%), 1mg test cpd/10 cockroaches/bottle (cockroach larvae): 100%
CCCCN(CCOc1ccc(C)cc1C)c1ncnc2ccccc12 [compound 35, 4-{N-butyl-N-[2-(2,4-dimethylphenoxy)ethyl]amino}quinazoline] | ii (all fish dead at 10 ppm but alive at 0.5 ppm) | 0 | – | –
Cc1ccc(OCCN(Cc2ccccc2)c2ncnc3ccccc23)c(C)c1 [compound 36, 4-{N-benzyl-N-[2-(2,4-dimethylphenoxy)ethyl]amino}quinazoline] | ii (all fish dead at 10 ppm but alive at 0.5 ppm) | 0 | – | –
Cc1ccc(OCCN(c2ncnc3ccccc23)C2CCCCC2)c(C)c1 [compound 37, 4-{N-cyclohexyl-N-[2-(2,4-dimethylphenoxy)ethyl]amino}quinazoline] | – | – | – | pest or weed control at 500 ppm [1]: 60%; Extent of ingestion [1]: ± to +
CCCN(CCOc1ccc(Cl)cc1C)c1ncnc2ccccc12 [compound 39, 4-{N-[2-(4-chloro-2-methylphenoxy)ethyl]-N-propylamino}quinazoline] | ii (all fish dead at 10 ppm but alive at 0.5 ppm) | 0 | 9 | Mortality rate (%), 0.5mg test cpd/10 cockroaches/bottle (cockroach larvae): 85%; Mortality rate (%), 1mg test cpd/10 cockroaches/bottle (cockroach larvae): 100%
Cc1cc(Cl)ccc1OCCN(c1ncnc2ccccc12)C(C)C [compound 40, 4-{N-[2-(4-chloro-2-methylphenoxy)ethyl]-N-isopropylamino}quinazoline] | i (all fish alive at 10 ppm) | 0 | – | –
Cc1cc(Cl)ccc1OCCN(Cc1ccccc1)c1ncnc2ccccc12 [compound 42, 4-{N-benzyl-N-[2-(4-chloro-2-methylphenoxy)ethyl]amino}quinazoline] | – | – | – | pest or weed control at 500 ppm [1]: 60%; Extent of ingestion [1]: ± to +
CC(C)c1ccccc1OCCN(c1ncnc2ccccc12)C1CCCCC1 [compound 46, 4-{N-cyclohexyl-N-[2-(2-isopropylphenoxy)ethyl]amino}quinazoline] | – | – | 0 | –
CCCN(CCOc1cc(C(C)C)ccc1C)c1ncnc2ccccc12 [compound 48, 4-{N-[2-(5-isopropyl-2-methylphenoxy)ethyl]-N-propylamino}quinazoline] | – | 0 | – | –
CCCCN(CCOc1cc(C(C)C)ccc1C)c1ncnc2ccccc12 [compound 49, 4-{N-butyl-N-[2-(5-isopropyl-2-methylphenoxy)ethyl]amino}quinazoline] | – | 0 | – | –
CC(C)=CCN(CCOc1ccccc1C(C)C)c1ncnc2ccccc12 [compound 53, 4-{N-[2-(2-isopropylphenoxy)ethyl]-N-(3-methyl-2-butenyl)amino}quinazoline] | ii (all fish dead at 10 ppm but alive at 0.5 ppm) | – | 0 | –
CC(C)c1ccccc1OCCN(C)c1ncnc2ccccc12.O=C(O)C(=O)O [compound 54, 4-{N-[2-(2-isopropylphenoxy)ethyl]-N-methylamino}quinazoline oxalate] | – | – | 0 | –
